# In the supplement of paper PMC10307832:
# Compound: C=CCn1c(=O)c2cnc(Nc3ccc(N4CCN(C)CC4)cc3)nc2n1-c1cccc(C(C)(C)O)n1 [Adavosertib] + CC1(C)CCC(c2ccc(Cl)cc2)=C(CN2CCN(c3ccc(C(=O)NS(=O)(=O)c4ccc(N[C@H](CCN5CCOCC5)CSc5ccccc5)c(S(=O)(=O)C(F)(F)F)c4)cc3)CC2)C1 [Navitoclax] (partner 0.5 µM)
# Experiment: relative viability (nuclei count vs DMSO), 5 days (fraction); higher = more cells survive
# Settings: first compound 0.01 µM
# Summary of the method: (§1)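 Five library-drug doses in √10 steps were combined with a fixed anchor-drug dose, or a single drug was given alone, by pin tool to lung cancer cell lines in 1536-well plates the day after seeding. Nuclei were stained and counted after 5 days. Relative viability is the nuclei count in treated wells over that in vehicle wells, taken as the median of duplicate plates.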
row,Cell Line,relative viability
1,NCI-H23,0.89
2,NCI-H441,0.645
3,NCI-H460,0.942
4,NCI-H520,1.12
5,NCI-H596,0.897
6,NCI-H647,1.15
7,NCI-H838,1.16
8,NCI-H1355,0.996
9,NCI-H1395,1.15
10,NCI-H1437,1.05
11,NCI-H1650,1.15
12,NCI-H1651,0.993
13,NCI-H1666,0.927
14,NCI-H1734,0.866
15,NCI-H1755,0.983
16,NCI-H1793,0.338

row,Cell Line,relative viability
1,NCI-H1915,0.831
2,NCI-H1944,1.05
3,NCI-H1975,1.17
4,NCI-H1993,1.02
5,NCI-H2009,1.14
6,NCI-H2023,1.03
7,NCI-H2085,1.28
8,NCI-H2087,1.09
9,NCI-H2126,0.882
10,NCI-H2170,0.605
11,NCI-H2228,0.691
12,NCI-H2347,0.811
13,NCI-H2405,0.869
14,NCI-H3122,1.07
15,PC-3 [JPC-3],0.842
16,PC-14,1.06

# Same assay, conditions: first compound 0.03162 µM
row,Cell Line,relative viability
1,NCI-H23,0.677
2,NCI-H322M,1.25
3,NCI-H441,0.741
4,NCI-H460,1.18
5,NCI-H520,1.1
6,NCI-H596,1.01
7,NCI-H647,1.17
8,NCI-H838,1.11
9,NCI-H1355,0.848
10,NCI-H1395,1.17
11,NCI-H1437,1.13
12,NCI-H1650,1.26
13,NCI-H1651,1.13
14,NCI-H1666,0.83
15,NCI-H1734,0.818
16,NCI-H1755,1
17,NCI-H1793,0.405

row,Cell Line,relative viability
1,NCI-H1915,0.766
2,NCI-H1944,1.02
3,NCI-H1975,1.25
4,NCI-H1993,0.977
5,NCI-H2009,1.18
6,NCI-H2023,0.959
7,NCI-H2085,1.05
8,NCI-H2087,1.14
9,NCI-H2126,0.871
10,NCI-H2170,0.57
11,NCI-H2228,1.41
12,NCI-H2347,0.804
13,NCI-H2405,1.01
14,NCI-H3122,1.02
15,PC-3 [JPC-3],0.782
16,PC-14,0.963

# Same assay, conditions: first compound 0.1 µM
row,Cell Line,relative viability
1,NCI-H23,0.938
2,NCI-H322M,1.12
3,NCI-H441,0.64
4,NCI-H460,1.45
5,NCI-H520,1.09
6,NCI-H596,1.06
7,NCI-H647,1.12
8,NCI-H838,1.18
9,NCI-H1355,0.987
10,NCI-H1395,1.25
11,NCI-H1437,1.16
12,NCI-H1650,1.25
13,NCI-H1651,1.17
14,NCI-H1666,0.935
15,NCI-H1734,0.877
16,NCI-H1755,1.02
17,NCI-H1793,0.422

row,Cell Line,relative viability
1,NCI-H1915,0.804
2,NCI-H1944,1.07
3,NCI-H1975,1.01
4,NCI-H1993,1.01
5,NCI-H2009,1.21
6,NCI-H2023,0.912
7,NCI-H2085,1.06
8,NCI-H2087,1.09
9,NCI-H2126,0.871
10,NCI-H2170,0.482
11,NCI-H2228,0.885
12,NCI-H2347,0.954
13,NCI-H2405,0.98
14,NCI-H3122,1
15,PC-3 [JPC-3],0.797
16,PC-14,1.02

# Same assay, conditions: first compound 0.3162 µM
row,Cell Line,relative viability
1,NCI-H23,0.368
2,NCI-H322M,0.953
3,NCI-H441,0.401
4,NCI-H460,0.861
5,NCI-H520,0.791
6,NCI-H596,0.742
7,NCI-H647,0.985
8,NCI-H838,1.13
9,NCI-H1355,0.852
10,NCI-H1395,0.986
11,NCI-H1437,1.11
12,NCI-H1650,1.1
13,NCI-H1651,0.748
14,NCI-H1666,0.673
15,NCI-H1734,0.821
16,NCI-H1755,0.926
17,NCI-H1793,0.425

row,Cell Line,relative viability
1,NCI-H1915,0.786
2,NCI-H1944,1.02
3,NCI-H1975,0.483
4,NCI-H1993,0.934
5,NCI-H2009,1.23
6,NCI-H2023,0.6
7,NCI-H2085,1.11
8,NCI-H2087,0.937
9,NCI-H2126,0.894
10,NCI-H2170,0.313
11,NCI-H2228,0.305
12,NCI-H2347,0.791
13,NCI-H2405,0.996
14,NCI-H3122,1.01
15,PC-3 [JPC-3],0.716
16,PC-14,0.528

# Compound: COc1nc(N)nc2c1ncn2[C@@H]1O[C@H](CO)[C@@H](O)[C@@H]1O [Nelarabine] + CC1(C)CCC(c2ccc(Cl)cc2)=C(CN2CCN(c3ccc(C(=O)NS(=O)(=O)c4ccc(N[C@H](CCN5CCOCC5)CSc5ccccc5)c(S(=O)(=O)C(F)(F)F)c4)cc3)CC2)C1 [Navitoclax] (partner 0.5 µM)
# Experiment: as above
# Settings: first compound 0.01 µM
# Summary of the method: as §1
row,Cell Line,relative viability
1,NCI-H23,0.804
2,NCI-H322M,1.39
3,NCI-H441,1.13
4,NCI-H520,1.32
5,NCI-H596,0.986
6,NCI-H647,1.6
7,NCI-H838,1.48
8,NCI-H1355,1.1
9,NCI-H1395,1.18
10,NCI-H1437,1.38
11,NCI-H1650,1.32
12,NCI-H1651,1.48
13,NCI-H1666,1.08
14,NCI-H1734,1.06
15,NCI-H1755,1.06
16,NCI-H1793,0.46

row,Cell Line,relative viability
1,NCI-H1915,0.799
2,NCI-H1944,1.02
3,NCI-H1975,1.27
4,NCI-H1993,1.14
5,NCI-H2009,1.26
6,NCI-H2023,1.26
7,NCI-H2085,1.08
8,NCI-H2087,1.02
9,NCI-H2126,0.869
10,NCI-H2170,0.564
11,NCI-H2228,1.3
12,NCI-H2347,0.955
13,NCI-H2405,1
14,NCI-H3122,1.04
15,PC-3 [JPC-3],1.04
16,PC-14,1.09

# Same assay, conditions: first compound 0.03162 µM
row,Cell Line,relative viability
1,NCI-H23,0.821
2,NCI-H322M,1.35
3,NCI-H441,0.707
4,NCI-H460,1.68
5,NCI-H520,0.999
6,NCI-H596,1.13
7,NCI-H647,1.01
8,NCI-H838,1.13
9,NCI-H1355,0.818
10,NCI-H1395,1.16
11,NCI-H1437,1.16
12,NCI-H1650,1.36
13,NCI-H1651,1.1
14,NCI-H1666,1.08
15,NCI-H1734,0.787
16,NCI-H1755,0.846
17,NCI-H1793,0.552

row,Cell Line,relative viability
1,NCI-H1915,0.687
2,NCI-H1944,0.964
3,NCI-H1975,0.948
4,NCI-H1993,0.783
5,NCI-H2009,1.18
6,NCI-H2023,1.17
7,NCI-H2085,1.08
8,NCI-H2087,0.944
9,NCI-H2126,0.748
10,NCI-H2170,0.627
11,NCI-H2228,1.11
12,NCI-H2347,0.799
13,NCI-H2405,0.902
14,NCI-H3122,0.668
15,PC-3 [JPC-3],0.732
16,PC-14,1.11

# Same assay, conditions: first compound 0.1 µM
row,Cell Line,relative viability
1,NCI-H23,0.783
2,NCI-H322M,1.3
3,NCI-H441,0.912
4,NCI-H460,1.42
5,NCI-H520,1.28
6,NCI-H596,0.959
7,NCI-H647,1.13
8,NCI-H838,1.22
9,NCI-H1355,0.923
10,NCI-H1395,1.28
11,NCI-H1437,1.09
12,NCI-H1650,1.28
13,NCI-H1651,1.1
14,NCI-H1666,0.807
15,NCI-H1734,0.962
16,NCI-H1755,0.555

row,Cell Line,relative viability
1,NCI-H1793,0.433
2,NCI-H1915,0.767
3,NCI-H1944,1.01
4,NCI-H1975,1.26
5,NCI-H1993,0.982
6,NCI-H2009,1.19
7,NCI-H2023,1.03
8,NCI-H2085,1.18
9,NCI-H2087,0.971
10,NCI-H2126,0.786
11,NCI-H2170,0.65
12,NCI-H2347,0.782
13,NCI-H2405,0.687
14,PC-3 [JPC-3],0.748
15,PC-14,1.05

# Same assay, conditions: first compound 0.3162 µM
row,Cell Line,relative viability
1,NCI-H23,0.854
2,NCI-H322M,1.27
3,NCI-H441,0.5
4,NCI-H460,1.37
5,NCI-H520,1.18
6,NCI-H596,1.04
7,NCI-H647,1.43
8,NCI-H838,1.26
9,NCI-H1355,1.01
10,NCI-H1395,1.19
11,NCI-H1437,1.05
12,NCI-H1650,1.36
13,NCI-H1651,1.04
14,NCI-H1666,1.07
15,NCI-H1734,0.869
16,NCI-H1755,1.14
17,NCI-H1793,0.47

row,Cell Line,relative viability
1,NCI-H1915,0.805
2,NCI-H1944,0.937
3,NCI-H1975,1.39
4,NCI-H1993,1.02
5,NCI-H2009,1.2
6,NCI-H2023,1.07
7,NCI-H2085,1.18
8,NCI-H2087,0.9
9,NCI-H2126,0.816
10,NCI-H2170,0.678
11,NCI-H2228,1.33
12,NCI-H2347,0.782
13,NCI-H2405,0.744
14,NCI-H3122,1.04
15,PC-3 [JPC-3],0.913
16,PC-14,1.05

# Same assay, conditions: first compound 1 µM
row,Cell Line,relative viability
1,NCI-H23,0.763
2,NCI-H322M,1.17
3,NCI-H441,0.49
4,NCI-H460,1.17
5,NCI-H520,1.37
6,NCI-H596,0.994
7,NCI-H647,1.07
8,NCI-H838,1.25
9,NCI-H1355,0.991
10,NCI-H1395,1.17
11,NCI-H1437,1.03
12,NCI-H1650,1.23
13,NCI-H1651,1.08
14,NCI-H1666,0.937
15,NCI-H1734,0.833
16,NCI-H1755,1.03
17,NCI-H1793,0.385

row,Cell Line,relative viability
1,NCI-H1915,0.796
2,NCI-H1944,0.968
3,NCI-H1975,1.14
4,NCI-H1993,0.956
5,NCI-H2009,1.18
6,NCI-H2023,1.01
7,NCI-H2085,1.18
8,NCI-H2087,0.979
9,NCI-H2126,0.743
10,NCI-H2170,0.552
11,NCI-H2228,0.722
12,NCI-H2347,0.939
13,NCI-H2405,0.84
14,NCI-H3122,1.05
15,PC-3 [JPC-3],0.926
16,PC-14,1.03

# Compound: COc1nc(N)nc2c1ncn2[C@@H]1O[C@H](CO)[C@@H](O)[C@@H]1O [Nelarabine] + COc1cc2c(Oc3ccc(NC(=O)C4(C(=O)Nc5ccc(F)cc5)CC4)cc3F)ccnc2cc1OCCCN1CCOCC1 [Foretinib] (partner 0.25 µM)
# Experiment: as above
# Settings: first compound 0.01 µM
# Summary of the method: as §1
row,Cell Line,relative viability
1,NCI-H23,1.13
2,NCI-H322M,0.972
3,NCI-H441,0.98
4,NCI-H460,1.49
5,NCI-H520,1.06
6,NCI-H596,0.829
7,NCI-H647,1.22
8,NCI-H838,1.24
9,NCI-H1355,1.05
10,NCI-H1395,1.07
11,NCI-H1437,1.4
12,NCI-H1650,1.13
13,NCI-H1651,1.12
14,NCI-H1666,1.05
15,NCI-H1734,1.01
16,NCI-H1755,0.939
